The record followed here is patent US20230278995A1, “1,3,4-OXADIAZOLE DERIVATIVE COMPOUNDS AS HISTONE DEACETYLASE 6 INHIBITOR, AND THE PHARMACEUTICAL COMPOSITION COMPRISING THE SAME” (CHONG KUN DANG PHARMACEUTICAL CORP., priority 2020, published 2023).

The target of one assay is T1, human recombinant HDAC1 (Homo sapiens, UniProt Q13547).
T1 construct: purchased Enzo Life Sciences, Inc. BML-SE456
Nature of the assay: HDAC enzyme activity inhibition assay (HDAC Fluorimetric Drug Discovery Kit), HDAC1. Format: biochemical. Conditions: human recombinant HDAC1, Fluor de Lys-SIRT1 substrate, 30° C. 60 minutes. How it is done: (§1) For the HDAC1 enzyme activity test, human recombinant HDAC1 (BML-SE456) was used as an enzyme source and Fluor de Lys©-SIRT1 (BNL-K1177) was used as a substrate. After dispensing 5-fold diluted compounds into a 96-well plate, 0.3 μg of enzyme and 10 μM substrate were added to each well of the plate and allowed to react at 30° C. for 60 minutes. Next, Fluor de Lys© Developer II (BML-K1176) was added and reacted for 30 minutes to complete the reaction, and then the fluorescence values (Ex 360, Em 460) were measured using a multi-plate reader (Flexstation 3, Molecular Device). The HDAC6 enzymes were tested using human recombinant HDAC6 (382180) from Calbiochem Inc., according to the same protocol as the HDAC1 enzyme activity test method. With respect to the final result values, respective IC50 values were calculated using GraphPad Prism 4.0 program (Table 2).

Another assay has as its target T2, human recombinant HDAC6 (Homo sapiens, UniProt Q9UBN7).
T2 construct: purchased Calbiochem Inc. 382180
T2 sequence (Q9UBN7 1-1215): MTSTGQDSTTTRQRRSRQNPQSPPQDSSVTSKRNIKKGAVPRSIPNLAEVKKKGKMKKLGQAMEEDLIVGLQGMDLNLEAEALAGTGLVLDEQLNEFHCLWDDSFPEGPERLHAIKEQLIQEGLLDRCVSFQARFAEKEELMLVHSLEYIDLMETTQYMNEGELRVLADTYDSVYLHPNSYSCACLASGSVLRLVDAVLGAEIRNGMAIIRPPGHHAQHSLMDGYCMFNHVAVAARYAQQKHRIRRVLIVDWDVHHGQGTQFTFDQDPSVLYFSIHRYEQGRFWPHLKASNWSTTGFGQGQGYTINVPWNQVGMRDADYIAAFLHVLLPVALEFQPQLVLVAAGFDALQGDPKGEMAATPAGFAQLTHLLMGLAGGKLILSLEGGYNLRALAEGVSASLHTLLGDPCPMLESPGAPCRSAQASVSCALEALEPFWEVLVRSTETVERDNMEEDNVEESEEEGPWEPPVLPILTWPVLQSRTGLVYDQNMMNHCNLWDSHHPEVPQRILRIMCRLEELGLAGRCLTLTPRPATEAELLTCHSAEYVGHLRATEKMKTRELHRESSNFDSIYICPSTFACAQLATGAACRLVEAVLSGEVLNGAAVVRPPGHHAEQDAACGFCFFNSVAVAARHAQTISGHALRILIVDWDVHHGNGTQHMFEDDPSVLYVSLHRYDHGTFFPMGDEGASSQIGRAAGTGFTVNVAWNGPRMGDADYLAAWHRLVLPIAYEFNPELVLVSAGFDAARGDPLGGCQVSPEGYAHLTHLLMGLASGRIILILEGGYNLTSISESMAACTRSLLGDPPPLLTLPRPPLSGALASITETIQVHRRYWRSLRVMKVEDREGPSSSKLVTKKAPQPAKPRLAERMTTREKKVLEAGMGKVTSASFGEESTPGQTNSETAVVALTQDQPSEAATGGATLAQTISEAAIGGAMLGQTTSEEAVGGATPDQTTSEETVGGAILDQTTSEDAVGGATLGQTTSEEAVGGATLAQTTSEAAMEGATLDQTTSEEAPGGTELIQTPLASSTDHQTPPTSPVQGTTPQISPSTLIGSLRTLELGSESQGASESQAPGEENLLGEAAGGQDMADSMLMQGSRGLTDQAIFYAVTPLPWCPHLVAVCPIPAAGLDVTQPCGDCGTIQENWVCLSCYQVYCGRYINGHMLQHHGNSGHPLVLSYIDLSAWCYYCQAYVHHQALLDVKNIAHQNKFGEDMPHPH
The experiment in a line: HDAC enzyme activity inhibition assay (HDAC Fluorimetric Drug Discovery Kit), HDAC6. Format: biochemical. Conditions: for HDAC6 selectivity (fold): HDAC1 vs HDAC6; for IC50: human recombinant HDAC6, same protocol as HDAC1. The protocol:
as §1

Structures are written as SMILES.

T1 sequence (Q13547 whole entry): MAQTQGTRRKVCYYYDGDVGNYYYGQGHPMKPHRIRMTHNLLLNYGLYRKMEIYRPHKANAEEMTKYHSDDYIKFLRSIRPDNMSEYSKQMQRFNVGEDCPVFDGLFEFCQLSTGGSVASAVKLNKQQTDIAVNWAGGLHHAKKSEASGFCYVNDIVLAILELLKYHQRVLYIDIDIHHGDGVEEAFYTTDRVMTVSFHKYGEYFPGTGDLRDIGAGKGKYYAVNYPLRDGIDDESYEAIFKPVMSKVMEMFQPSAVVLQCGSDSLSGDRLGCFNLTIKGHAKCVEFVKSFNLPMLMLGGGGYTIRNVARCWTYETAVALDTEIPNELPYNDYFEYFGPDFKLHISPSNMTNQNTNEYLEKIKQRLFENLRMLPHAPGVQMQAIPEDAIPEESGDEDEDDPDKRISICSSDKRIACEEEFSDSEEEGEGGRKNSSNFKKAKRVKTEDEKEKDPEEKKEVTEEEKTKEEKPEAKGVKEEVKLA

One may read the IC50 as the point on the concentration scale where inhibition reaches its midpoint. On to `O=C(N(Cc1ccc(-c2nnc(C(F)F)o2)cn1)c1ccccc1)C1(F)CCN(C2CC3(COC3)C2)CC1` [Compound 2995, N-((5-(5-(difluoromethyl)-1,3,4-oxadiazol-2-yl)pyridin-2-yl)methyl)-4-fluoro-N-phenyl-1-(2-oxaspiro[3.3]heptan-6-yl)piperidine-4-carboxamide], for which the IC50 at human recombinant HDAC1 is over 50000 nM; on human recombinant HDAC6, 83.3 nM. In addition, on human recombinant HDAC6, the “HDAC6 selectivity (fold)” value was found to be 600 fold.
The matching figures for `O=C(N(Cc1ccc(-c2nnc(C(F)F)o2)cn1)c1ccccc1)C1(F)CCN(C2CCCC2)CC1` [Compound 2996, 1-cyclopentyl-N-((5-(5-(difluoromethyl)-1,3,4-oxadiazol-2-yl)pyridin-2-yl)methyl)-4-fluoro-N-phenylpiperidine-4-carboxamide]: 24900 nM, 56.1 nM and 443 fold.
Consider `O=C(N(Cc1ccc(-c2nnc(C(F)F)o2)cn1)c1ccccc1)C1(F)CN(C2CCCCC2)C1` [Compound 2999, 1-cyclohexyl-N-((5-(5-(difluoromethyl)-1,3,4-oxadiazol-2-yl)pyridin-2-yl)methyl)-3-fluoro-N-phenylazetidine-3-carboxamide], for which the IC50 on human recombinant HDAC1 is over 50000 nM. Further, at human recombinant HDAC6, the “HDAC6 selectivity (fold)” value was 801 fold and the IC50 worked out at 62.4 nM.
Take `O=C(N(Cc1ccc(-c2nnc(C(F)F)o2)cn1)c1ccccc1)C1(F)CN(C2CCOCC2)C1` [Compound 3000, N-((5-(5-(difluoromethyl)-1,3,4-oxadiazol-2-yl)pyridin-2-yl)methyl)-3-fluoro-N-phenyl-1-(tetrahydro-2H-pyran-4-yl)azetidine-3-carboxamide]: on human recombinant HDAC1, the IC50 is over 50000 nM. Further, on human recombinant HDAC6, the “HDAC6 selectivity (fold)” value is recorded as 1,157 fold and the IC50 came to 43.2 nM.
As to `CCN1CC(F)(C(=O)N(Cc2ccc(-c3nnc(C(F)F)o3)cn2)c2ccccc2)C1` [Compound 3001, N-((5-(5-(difluoromethyl)-1,3,4-oxadiazol-2-yl)pyridin-2-yl)methyl)-1-ethyl-3-fluoro-N-phenylazetidine-3-carboxamide], the IC50 on human recombinant HDAC1 was over 50000 nM. For the same compound, on human recombinant HDAC6, the “HDAC6 selectivity (fold)” value is 1,000 fold and the IC50 worked out at 50 nM.
The matching figures for `CCCN1CC(F)(C(=O)N(Cc2ccc(-c3nnc(C(F)F)o3)cn2)c2ccccc2)C1` [Compound 3002, N-((5-(5-(difluoromethyl)-1,3,4-oxadiazol-2-yl)pyridin-2-yl)methyl)-3-fluoro-N-phenyl-1-propylazetidine-3-carboxamide]: over 50000 nM, 943 fold and 53 nM.
Regarding `CCCCN1CC(F)(C(=O)N(Cc2ccc(-c3nnc(C(F)F)o3)cn2)c2ccccc2)C1` [Compound 3003, 1-butyl-N-((5-(5-(difluoromethyl)-1,3,4-oxadiazol-2-yl)pyridin-2-yl)methyl)-3-fluoro-N-phenylazetidine-3-carboxamide], the IC50 on human recombinant HDAC1 came to 27500 nM; at human recombinant HDAC6, 37.4 nM. Besides, the “HDAC6 selectivity (fold)” value on human recombinant HDAC6 stood at 735 fold.
As to `CC(C)CN1CC(F)(C(=O)N(Cc2ccc(-c3nnc(C(F)F)o3)cn2)c2ccccc2)C1` [Compound 3004, N-((5-(5-(difluoromethyl)-1,3,4-oxadiazol-2-yl)pyridin-2-yl)methyl)-3-fluoro-1-isobutyl-N-phenylazetidine-3-carboxamide], the IC50 at human recombinant HDAC1 was determined as 26100 nM; at human recombinant HDAC6 it was 28.4 nM. Besides, the “HDAC6 selectivity (fold)” value on human recombinant HDAC6 came out at 917 fold.
On the same counts, the results for `CN(C)CCC(=O)N1CC(F)(C(=O)N(Cc2ccc(-c3nnc(C(F)F)o3)cn2)c2ccccc2)C1` [Compound 3006, N-((5-(5-(difluoromethyl)-1,3,4-oxadiazol-2-yl)pyridin-2-yl)methyl)-1-(3-(dimethylamino)propanoyl)-3-fluoro-N-phenylazetidine-3-carboxamide] are over 50000 nM, 24.6 nM and 2,032 fold.
